The results in this text go back to ChEMBL document CHEMBL1201862, “PubChem BioAssay data set” (2004).

Among the test systems are DMS-273; RXF 631; HOP-18; XF498; M19-MEL; DMS-114; LXFL 529; KM-20L2; SNB-78.
Common to all, as to assay: inhibition of tumour cell growth, NCI panel, 48 h

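48-hour exposure; five concentrations; linearly interpolated endpoints. Abbreviation: GI50, concentration required for 50% inhibition of growth.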 Active and inactive are the calls of the source. Rule as the data show it: active = GI50 up to about 1.1 µM and inactive = higher.

Take `CC(C)NC(=O)CCN(C(=O)O)S(=O)(=O)c1ccc(NC(=O)c2ccccc2)cc1`: the GI50 with DMS-273 was > 42.7 µM (inactive); in the assay with RXF 631, > 100 µM (inactive); in the assay on HOP-18, > 100 µM (inactive); with XF498 it was > 100 µM (inactive); in the assay with M19-MEL, > 53.3 µM (inactive); with DMS-114, > 39.4 µM (inactive). In addition, the results for the GI50 with LXFL 529, in the assay with KM-20L2 and in the assay with SNB-78 were > 93.8 µM (inactive), > 100 µM (inactive) and > 100 µM (inactive), respectively.

`CC1=C(c2cc(C(=O)Nc3cccc(C(F)(F)F)c3)nc(NC#N)n2)Sc2ccccc2N1`: the GI50 in the assay with DMS-273, in the assay on RXF 631, in the assay with HOP-18, in the assay with M19-MEL, in the assay on DMS-114 and with LXFL 529 was > 100 µM (inactive) throughout. In addition, the GI50 with KM-20L2 and in the assay on SNB-78 was > 100 µM (inactive) each time.

In the case of `CN(C)CC1CCC(=C2CCCC2)C1=O` (stereo not given), the GI50 with DMS-273 was 18.3 µM (inactive); in the assay on HOP-18, 16.7 µM (inactive); in the assay with XF498 it was 6.84 µM (inactive); in the assay with M19-MEL it was 16.8 µM (inactive); in the assay with DMS-114, 8.81 µM (inactive); in the assay on LXFL 529, 3.24 µM (inactive). Besides, the GI50 was 18.7 µM (inactive) in the assay on KM-20L2 and 12.6 µM (inactive) in the assay with SNB-78.

With `COc1ccc2c(c1)[n+]([O-])c(C(=O)CC(=O)C(=O)Nc1cccc(Cl)c1C)c(C)[n+]2[O-]`, the GI50 in the assay on DMS-273 was > 100 µM (inactive); in the assay with HOP-18, > 100 µM (inactive); with M19-MEL, 42.9 µM (inactive); in the assay with LXFL 529, > 100 µM (inactive); in the assay with KM-20L2, > 100 µM (inactive); in the assay on SNB-78, > 100 µM (inactive).

Turning to `CCOC(=O)c1c(-c2ccccc2)oc(-c2ccccc2)c1C(=O)OCC`, the GI50 in the assay on DMS-273 was > 100 µM (inactive); in the assay with HOP-18, > 100 µM (inactive); with XF498 it was 29.2 µM (inactive); in the assay with M19-MEL it was 56.4 µM (inactive); in the assay on DMS-114 it was > 100 µM (inactive); with LXFL 529, 34.6 µM (inactive). Also, the results for the GI50 with KM-20L2 and with SNB-78 were 38.9 µM (inactive) and > 100 µM (inactive), respectively.

Regarding `NC(=S)/N=C(/c1nc2ccc(Cl)cc2nc1O)C(O)c1ccccc1Cl` (stereo not given), the GI50 with DMS-273 is > 100 µM (inactive); in the assay on HOP-18 it was 33.8 µM (inactive); in the assay with XF498 it was > 100 µM (inactive); in the assay on DMS-114, > 100 µM (inactive); in the assay on LXFL 529 it was > 100 µM (inactive); with KM-20L2 it was > 100 µM (inactive).

Consider `CCCCC#COP(=O)(OCC)OCC`, for which the GI50 in the assay with RXF 631, with M19-MEL, in the assay on DMS-114, in the assay on LXFL 529, with KM-20L2 and in the assay with SNB-78 was > 100 µM (inactive) each time.

On to `Cc1cc(C)nc(NS(=O)(=O)c2ccc(NC(=O)c3cccc4c(Nc5ccc(S(N)(=O)=O)cc5)c5ccccc5nc34)cc2)n1`, for which the GI50 is 34.8 µM (inactive) in the assay with DMS-273; > 100 µM (inactive) in the assay with RXF 631; > 56 µM (inactive) with HOP-18; 39.2 µM (inactive) with XF498; 13.5 µM (inactive) in the assay on M19-MEL; 17.5 µM (inactive) with DMS-114. For the same compound, the results for the GI50 in the assay with LXFL 529, with KM-20L2 and with SNB-78 were 3.92 µM (inactive), > 75.5 µM (inactive) and 9.79 µM (inactive), respectively.

On to `CCCCCCCC1(c2ccc(N)cc2)CCC(=O)NC1=O` (stereo not given), for which the GI50 is 26.9 µM (inactive) in the assay on DMS-273; 41 µM (inactive) in the assay on RXF 631; 27.2 µM (inactive) in the assay on XF498; 37.8 µM (inactive) in the assay with M19-MEL; 24.2 µM (inactive) in the assay with DMS-114; 29.3 µM (inactive) in the assay with LXFL 529. Moreover, the values for the GI50 in the assay on KM-20L2 and with SNB-78 were 33 µM (inactive) and 31.6 µM (inactive), respectively.

For `O=C1c2ccccc2C(Br)(Br)c2ccccc21`, the GI50 was > 31.6 µM (inactive) in the assay with DMS-273; > 31.6 µM (inactive) in the assay with HOP-18; 29.3 µM (inactive) with XF498; > 31.6 µM (inactive) in the assay with M19-MEL; > 31.6 µM (inactive) with DMS-114; > 31.6 µM (inactive) in the assay with LXFL 529. The GI50 with KM-20L2 and with SNB-78 was > 100 µM (inactive) each time.

In the case of `CS(=O)(=O)NNS(=O)(=O)c1ccc(Cl)cc1`, the GI50 in the assay with DMS-273, with RXF 631, in the assay on XF498, in the assay with M19-MEL, in the assay with DMS-114 and with LXFL 529 was > 100 µM (inactive) throughout. The GI50 with KM-20L2 was > 100 µM (inactive).

`Cc1ccc2ccc3ccc(C)nc3c2n1` [NEOCUPROINE]: the GI50 in the assay with DMS-273 was 2.36 µM (inactive); in the assay on HOP-18, 63.4 µM (inactive); with M19-MEL it was 3.44 µM (inactive); in the assay on DMS-114, 0.388 µM (active); in the assay with LXFL 529, 0.679 µM (active); in the assay with KM-20L2, 6.24 µM (inactive). Moreover, the GI50 in the assay with SNB-78 is > 100 µM (inactive).

With `CCCCCC1C2C(=O)NC(=O)C1C(=O)NC2=O` (stereo not given), the GI50 in the assay on DMS-273, with XF498, in the assay on M19-MEL, in the assay with DMS-114, with LXFL 529 and in the assay with KM-20L2 was > 100 µM (inactive) in each case.

As to `COC(=O)C1(F)C(=O)NC(=O)NC1OC` (stereo not given), the GI50 was 21.2 µM (inactive) in the assay with DMS-273; 88.7 µM (inactive) in the assay with HOP-18; 67.1 µM (inactive) in the assay on XF498; 18.7 µM (inactive) in the assay with M19-MEL; 73.3 µM (inactive) in the assay with DMS-114; 50.9 µM (inactive) in the assay on KM-20L2. The GI50 in the assay with SNB-78 is > 100 µM (inactive).

In the case of `COc1ccc2c(c1)NC1(O)c3ccccc3C(=O)C21O` (stereo not given), the GI50 with DMS-273 was > 100 µM (inactive); in the assay on RXF 631, > 100 µM (inactive); in the assay with HOP-18, > 100 µM (inactive); in the assay on XF498, 25 µM (inactive); with M19-MEL, > 100 µM (inactive); in the assay with DMS-114, > 100 µM (inactive). The GI50 in the assay on LXFL 529, in the assay on KM-20L2 and with SNB-78 was > 100 µM (inactive) throughout.

`CC1=NN(C(=O)c2ccc(Cl)cc2)C(=O)/C1=C/c1ccc(O)cc1`: the GI50 in the assay with XF498, in the assay with M19-MEL, in the assay with DMS-114, in the assay with LXFL 529 and with KM-20L2 was > 100 µM (inactive) each time.

For the compound `COC(=N)c1csc(C2OC(CO)C(O)C2O)n1` (stereo not given), the GI50 in the assay with DMS-273, with RXF 631, with HOP-18, in the assay with XF498, with M19-MEL and in the assay on DMS-114 was > 100 µM (inactive) each time. The GI50 in the assay on LXFL 529, with KM-20L2 and in the assay on SNB-78 was > 100 µM (inactive) each time.

As to `COC(=O)CCC(NC(=S)N/N=C/c1ccco1)C(=O)OC` (stereo not given), the GI50 in the assay on DMS-273, with RXF 631, in the assay with HOP-18, with XF498, with M19-MEL and with DMS-114 was > 100 µM (inactive) in each case. For the same compound, the GI50 in the assay on LXFL 529, in the assay on KM-20L2 and in the assay on SNB-78 was > 100 µM (inactive) in each case.

Turning to `Cc1ccccc1/N=C/c1ccc(N(CCC#N)S(=O)(=O)c2ccccc2)cc1`, the GI50 in the assay with DMS-273, in the assay with RXF 631, in the assay on HOP-18, in the assay with XF498, in the assay on M19-MEL and with DMS-114 was > 100 µM (inactive) in each case. Further, the GI50 in the assay on LXFL 529, in the assay on KM-20L2 and with SNB-78 was > 100 µM (inactive) in each case.

For `O=C[C@@H](CO)O[C@H](C=O)c1c[nH]c(=O)[nH]c1=O`, the GI50 with DMS-273 is > 81.5 µM (inactive); with HOP-18, 95.1 µM (inactive); in the assay on XF498, 24.7 µM (inactive); in the assay with M19-MEL it was 104 µM (inactive); in the assay with DMS-114 it was 37.6 µM (inactive); in the assay with KM-20L2 it was 84.3 µM (inactive). For the same compound, the GI50 with SNB-78 is 133 µM (inactive).

In the case of `Cc1ccc2c(c1)C(c1cccc3ccccc13)OC2=O` (stereo not given), the GI50 with DMS-273 is > 100 µM (inactive); in the assay with RXF 631 it was 27.7 µM (inactive); with HOP-18, 71.6 µM (inactive); in the assay on M19-MEL, > 100 µM (inactive); with DMS-114 it was > 100 µM (inactive); with LXFL 529, > 100 µM (inactive). Moreover, in the assay on KM-20L2, the GI50 is > 100 µM (inactive).

On to `CC(=O)Nc1ccc(C(=O)NN2C(=O)C(Cl)C2c2cc(Br)ccc2O)cc1` (stereo not given), for which the GI50 in the assay with HOP-18 is 4.41 µM (inactive); in the assay on M19-MEL, 4.12 µM (inactive); in the assay with LXFL 529 it was 14.4 µM (inactive).

As for `CCc1cccc(CC)c1NC(=O)C(C#N)C1=C(Cl)C(=O)c2ccccc2C1=O` (stereo not given), the GI50 in the assay with DMS-273 was 17.9 µM (inactive); in the assay with RXF 631, 16.1 µM (inactive); in the assay with HOP-18 it was 15.5 µM (inactive); in the assay on XF498, 15.9 µM (inactive); in the assay with M19-MEL it was 19.1 µM (inactive); in the assay on DMS-114, 22 µM (inactive). Further, the GI50 is 16.1 µM (inactive) in the assay with LXFL 529, 21.4 µM (inactive) with KM-20L2 and 8.15 µM (inactive) in the assay on SNB-78.

On to `COC1=CC2(C=CC1=O)c1cc(OC)c(OC)cc1CCN2C(=O)c1ccccc1` (stereo not given), for which the GI50 was > 100 µM (inactive) in the assay with DMS-273; 98.2 µM (inactive) in the assay on HOP-18; > 100 µM (inactive) in the assay on DMS-114; > 100 µM (inactive) with LXFL 529; > 100 µM (inactive) in the assay on SNB-78.
